Patent US6387850B1, “Pesticide composition and method” (Application Technologies, Inc., priority 1998, dated 2002)

What was measured:
Test in all cases: Field weed control in glyphosate-tolerant soybeans, visual rating
Type in all cases: in vivo
Settings in all cases: 23 days after application, scale 0 = no, 10 = complete weed control
[1] = tested on: volunteer corn (Zea mays)
Description: (§1) Materials and Methods: Applications were made to glyphosate-tolerant soybeans on Jun. 10, 1998. Weed species present ranging in height from 5 to 20 cm included giant foxtail (Setaria faberii), barnyard grass (Echinochloa crus-galli), volunteer corn (Zea mays) and yellow foxtail (Setaria glauca) Treatments were applied using Spraying Systems Turbo TeeJet TT-11002 nozzles spaced 50 cm apart on the spray boom at 207 kPa spray pressure resulting in a spray volume application of […] liters per hectare.
(§2) Spray solutions consisted of two comparison levels of mineral hardness as measured by TDS in ppm. The original solution consisted of 10 ppm. The second solution measuring 400 ppm was established using calcium chloride at approximately 227 grams per 378 liters.
(§3) Herbicide applications of glyphosate in form of Roundup Ultra® (Monsanto Company) formulation were applied at four rates: 26, 53, 105 and 210 grams of acid equivalent per hectare (g ae/ha) A spray adjuvant, Array® at 4 kilograms per 378 liters of spray solution was added to the spray solution prior to the addition of the herbicide. Array was evaluated across herbicide and spray solution treatments. Array consists of a micro-homogenized combination of AMS (ammonium sulfate) fertilizer at 94.4% analysis 21-0-0-24 (nitrogen-phosphorus-potassium-sulfur) and DR 2000 (Rhodia Surfactants) at 5.6%, a short-chain guar-based polymer.

[2] = tested on: giant foxtail (Setaria faberii)
Description: as §1, §2, §3

[3] = tested on: barnyard grass (Echinochloa crus-galli)
Description: as §1, §2, §3

[4] = tested on: yellow foxtail (Setaria glauca)
Description: as §1, §2, §3

[5] = 26 g ae/ha, solution TDS 10 ppm, Array 4 kg/378 L Yes
[6] = 26 g ae/ha, solution TDS 10 ppm, Array No
[7] = 26 g ae/ha, solution TDS 400 ppm, Array 4 kg/378 L Yes
[8] = 26 g ae/ha, solution TDS 400 ppm, Array No
[9] = 53 g ae/ha, solution TDS 10 ppm, Array 4 kg/378 L Yes
[10] = 53 g ae/ha, solution TDS 10 ppm, Array No
[11] = 53 g ae/ha, solution TDS 400 ppm, Array 4 kg/378 L Yes
[12] = 53 g ae/ha, solution TDS 400 ppm, Array No
[13] = 105 g ae/ha, solution TDS 10 ppm, Array 4 kg/378 L Yes
[14] = 105 g ae/ha, solution TDS 10 ppm, Array No
[15] = 105 g ae/ha, solution TDS 400 ppm, Array 4 kg/378 L Yes
[16] = 105 g ae/ha, solution TDS 400 ppm, Array No
[17] = 210 g ae/ha, solution TDS 10 ppm, Array 4 kg/378 L Yes
[18] = 210 g ae/ha, solution TDS 10 ppm, Array No
[19] = 210 g ae/ha, solution TDS 400 ppm, Array 4 kg/378 L Yes
[20] = 210 g ae/ha, solution TDS 400 ppm, Array No

**Q.** Which results are given for `O=C(O)CNCP(=O)(O)O` [Glyphosate, glyphosate]?
**A.** Visual rating of weed control, Volunteer Corn [1, 5]: 2; Visual rating of weed control, Volunteer Corn [1, 6]: 1; Visual rating of weed control, Volunteer Corn [1, 7]: 1; Visual rating of weed control, Volunteer Corn [1, 8]: 0; Visual rating of weed control, Volunteer Corn [1, 9]: 4; Visual rating of weed control, Volunteer Corn [1, 10]: 3; Visual rating of weed control, Volunteer Corn [1, 11]: 2; Visual rating of weed control, Volunteer Corn [1, 12]: 1; Visual rating of weed control, Volunteer Corn [1, 13]: 8; Visual rating of weed control, Volunteer Corn [1, 14]: 5; Visual rating of weed control, Volunteer Corn [1, 15]: 3; Visual rating of weed control, Volunteer Corn [1, 16]: 2; Visual rating of weed control, Volunteer Corn [1, 17]: 10; Visual rating of weed control, Volunteer Corn [1, 18]: 9; Visual rating of weed control, Volunteer Corn [1, 19]: 6; Visual rating of weed control, Volunteer Corn [1, 20]: 5; Visual rating of weed control, Giant Foxtail [2, 5]: 3; Visual rating of weed control, Giant Foxtail [2, 6]: 2; Visual rating of weed control, Giant Foxtail [2, 7]: 1; Visual rating of weed control, Giant Foxtail [2, 8]: 0; Visual rating of weed control, Giant Foxtail [2, 9]: 4; Visual rating of weed control, Giant Foxtail [2, 10]: 3; Visual rating of weed control, Giant Foxtail [2, 11]: 2; Visual rating of weed control, Giant Foxtail [2, 12]: 1; Visual rating of weed control, Giant Foxtail [2, 13]: 8; Visual rating of weed control, Giant Foxtail [2, 14]: 6; Visual rating of weed control, Giant Foxtail [2, 15]: 3; Visual rating of weed control, Giant Foxtail [2, 16]: 2; Visual rating of weed control, Giant Foxtail [2, 17]: 10; Visual rating of weed control, Giant Foxtail [2, 18]: 9; Visual rating of weed control, Giant Foxtail [2, 19]: 6; Visual rating of weed control, Giant Foxtail [2, 20]: 5; Visual rating of weed control, Barnyard Grass [3, 5]: 3; Visual rating of weed control, Barnyard Grass [3, 6]: 2; Visual rating of weed control, Barnyard Grass [3, 7]: 1; Visual rating of weed control, Barnyard Grass [3, 8]: 0; Visual rating of weed control, Barnyard Grass [3, 9]: 5; Visual rating of weed control, Barnyard Grass [3, 10]: 4; Visual rating of weed control, Barnyard Grass [3, 11]: 2; Visual rating of weed control, Barnyard Grass [3, 12]: 1; Visual rating of weed control, Barnyard Grass [3, 13]: 7; Visual rating of weed control, Barnyard Grass [3, 14]: 5; Visual rating of weed control, Barnyard Grass [3, 15]: 3; Visual rating of weed control, Barnyard Grass [3, 16]: 2; Visual rating of weed control, Barnyard Grass [3, 17]: 10; Visual rating of weed control, Barnyard Grass [3, 18]: 9; Visual rating of weed control, Barnyard Grass [3, 19]: 6; Visual rating of weed control, Barnyard Grass [3, 20]: 5; Visual rating of weed control, Yellow Foxtail [4, 5]: 2; Visual rating of weed control, Yellow Foxtail [4, 6]: 2; Visual rating of weed control, Yellow Foxtail [4, 7]: 1; Visual rating of weed control, Yellow Foxtail [4, 8]: 0; Visual rating of weed control, Yellow Foxtail [4, 9]: 4; Visual rating of weed control, Yellow Foxtail [4, 10]: 3; Visual rating of weed control, Yellow Foxtail [4, 11]: 2; Visual rating of weed control, Yellow Foxtail [4, 12]: 1; Visual rating of weed control, Yellow Foxtail [4, 13]: 7; Visual rating of weed control, Yellow Foxtail [4, 14]: 5; Visual rating of weed control, Yellow Foxtail [4, 15]: 3; Visual rating of weed control, Yellow Foxtail [4, 16]: 2; Visual rating of weed control, Yellow Foxtail [4, 17]: 9; Visual rating of weed control, Yellow Foxtail [4, 18]: 8; Visual rating of weed control, Yellow Foxtail [4, 19]: 5; Visual rating of weed control, Yellow Foxtail [4, 20]: 5
